Results: paper PMC10304880, “Novel Tryptanthrin Derivatives with Selectivity as c–Jun N–Terminal Kinase (JNK) 3 Inhibitors” (Molecules, 2023)

Assays:
[1] = biological target: T1, JNK1 (Homo sapiens, UniProt P45983); test: KINOMEscan JNK1 binding (Kd); settings: 12-point series, max 33 μM, duplicate
T1 construct: purchased Eurofins Pharma Discovery (KINOMEscan service)
Protocol: (§1) All compounds were evaluated for their ability to bind to JNK1-3 using the KINOMEscan platform.
(§2) Compounds were submitted for dissociation constant (Kd) determination using KINOMEscan (Eurofins Pharma Discovery, San Diego, CA, USA), as described previously. […] Primary screening at fixed concentrations of compounds was performed in duplicate. To determine dissociation constant Kd, a 12-point half-log dilution series (a maximum concentration of 33 μM) was used.

[2] = biological target: T2, JNK2 (Homo sapiens, UniProt P45984); test: KINOMEscan JNK2 binding (Kd); settings: 12-point series, max 33 μM, duplicate
T2 construct: purchased Eurofins Pharma Discovery (KINOMEscan service)
T2 sequence (P45984 whole entry): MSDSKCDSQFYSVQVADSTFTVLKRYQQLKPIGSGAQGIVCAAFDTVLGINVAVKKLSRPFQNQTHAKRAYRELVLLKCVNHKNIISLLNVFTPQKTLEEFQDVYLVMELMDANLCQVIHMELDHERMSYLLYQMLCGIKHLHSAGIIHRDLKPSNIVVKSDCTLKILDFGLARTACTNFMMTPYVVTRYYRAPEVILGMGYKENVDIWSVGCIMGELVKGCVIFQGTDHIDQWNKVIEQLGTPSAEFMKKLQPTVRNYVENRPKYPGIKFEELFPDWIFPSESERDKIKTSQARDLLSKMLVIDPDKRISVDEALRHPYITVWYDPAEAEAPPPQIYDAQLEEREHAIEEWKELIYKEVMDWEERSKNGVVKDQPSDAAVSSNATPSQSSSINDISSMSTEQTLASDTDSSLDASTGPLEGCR
Protocol: as §1, §2

[3] = biological target: T3, JNK3 (Homo sapiens, UniProt P53779); test: KINOMEscan JNK3 binding (Kd); settings: for Kd: KINOMEscan, 12-point series, max 33 μM, duplicate; for Selectivity Index JNK1/JNK3 / Selectivity Index JNK2/JNK3: ratio of Kd values
T3 construct: purchased Eurofins Pharma Discovery (KINOMEscan service)
T3 sequence (P53779 whole entry): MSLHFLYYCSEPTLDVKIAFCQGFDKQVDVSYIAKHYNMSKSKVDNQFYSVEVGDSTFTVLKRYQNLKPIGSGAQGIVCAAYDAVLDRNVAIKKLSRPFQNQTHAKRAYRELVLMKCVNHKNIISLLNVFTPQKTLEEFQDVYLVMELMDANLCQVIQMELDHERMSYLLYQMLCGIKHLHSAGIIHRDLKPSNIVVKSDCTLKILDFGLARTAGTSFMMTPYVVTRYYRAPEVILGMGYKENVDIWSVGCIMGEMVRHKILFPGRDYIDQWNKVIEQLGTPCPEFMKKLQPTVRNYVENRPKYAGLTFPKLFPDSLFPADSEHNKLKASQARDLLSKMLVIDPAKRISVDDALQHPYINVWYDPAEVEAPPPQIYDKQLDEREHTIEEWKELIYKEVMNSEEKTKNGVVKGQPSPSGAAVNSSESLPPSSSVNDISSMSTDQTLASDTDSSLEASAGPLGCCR
Protocol: as §1, §2

[4] = CellTiter-Glo cytotoxicity in THP-1Blue cells; type: cell-based; settings: human, 24 h incubation
Protocol: (§3) Prior to evaluation of the compounds in cell-based assays, we measured their cytotoxicity in human monocytic THP-1Blue and MonoMac-6 cells during a 24 h incubation. […] Thus, these compounds were all excluded from subsequent testing in these cell lines.
(§4) Cytotoxicity was analyzed with a CellTiter-Glo Luminescent Cell Viability Assay Kit from Promega (Madison, WI, USA), according to the manufacturer’s protocol. Cells were treated with the compound under investigation and cultivated for 24 h. After treatment, the cells were allowed to equilibrate to room temperature for 30 min, substrate was added, and the luminescence measured using a Fluoroscan Ascent FL (Thermo Fisher Scientific, Waltham, MA, USA). The cell IC50 values were calculated by plotting the percentage inhibition against the logarithm of inhibitor concentration (at least five points).

[5] = CellTiter-Glo cytotoxicity in MonoMac-6 cells; type: cell-based; settings: human, 24 h incubation
Protocol: as §3, §4

[6] = tested on: NF-κB/AP-1 transcriptional activity in THP-1Blue cells; test: LPS-induced NF-κB/AP-1 alkaline phosphatase reporter assay in THP-1Blue cells; type: cell-based; settings: Homo sapiens, 30 min pretreatment, 250 ng/mL LPS, 24 h; read-out: AP Production in THP–1Blue IC50
Protocol: Activation of AP-1/NF-κB was measured using an alkaline phosphatase reporter gene assay in THP1-Blue cells. Human monocytic THP-1Blue cells were stably transfected with a secreted embryonic alkaline phosphatase gene that was under the control of a promoter inducible by AP-1/NF-κB.
Figure 2 Effect of compounds 4d and 4e on NF-κB/AP-1 activity and IL-6 production. Panel (A) THP-1Blue cells were pretreated with the indicated compounds or DMSO for 30 min, followed by addition of 250 ng/mL LPS or buffer for 24 h. […] Panel (B) MonoMac-6 cells were pretreated with the indicated compounds or DMSO for 30 min, followed by addition of 250 ng/mL LPS or buffer for 24 h. Production of IL-6 in the supernatants was evaluated with ELISA. The data in each panel are presented as the mean ± S.D. of triplicate samples from one experiment that is representative of three independent experiments.

[7] = tested on: IL-6 production in MonoMac-6 cells; test: LPS-induced IL-6 production in MonoMac-6 cells (ELISA); type: cell-based, human; settings: Homo sapiens, MONO-MAC-6, 30 min pretreatment, 250 ng/mL LPS, 24 h
Protocol: All cells were cultured at 37 °C in a humidified atmosphere containing 5% CO2. Human THP-1Blue monocytic cells obtained from InvivoGen (San Diego, CA, USA) were cultured in RPMI 1640 medium (Mediatech Inc., Herndon, VA, USA) supplemented with 10% (v/v) fetal bovine serum (FBS), 4.5 g/L glucose, 100 μg/mL streptomycin, 100 U/mL penicillin, 100 μg/mL phleomycin (Zeocin), and 10 μg/mL blasticidin S. Human monocyte-macrophage MonoMac-6 cells (Deutsche Sammlung von Mikroorganismen und Zellkulturen GmbH, Braunschweig, Germany) were grown in RPMI 1640 medium supplemented with 10% (v/v) FBS, 10 μg/mL bovine insulin, 100 μg/mL streptomycin, and 100 U/mL penicillin.
Panel (A) THP-1Blue cells were pretreated with the indicated compounds or DMSO for 30 min, followed by addition of 250 ng/mL LPS or buffer for 24 h. […] Panel (B) MonoMac-6 cells were pretreated with the indicated compounds or DMSO for 30 min, followed by addition of 250 ng/mL LPS or buffer for 24 h. Production of IL-6 in the supernatants was evaluated with ELISA. The data in each panel are presented as the mean ± S.D. of triplicate samples from one experiment that is representative of three independent experiments.

T1 sequence (P45983 whole entry): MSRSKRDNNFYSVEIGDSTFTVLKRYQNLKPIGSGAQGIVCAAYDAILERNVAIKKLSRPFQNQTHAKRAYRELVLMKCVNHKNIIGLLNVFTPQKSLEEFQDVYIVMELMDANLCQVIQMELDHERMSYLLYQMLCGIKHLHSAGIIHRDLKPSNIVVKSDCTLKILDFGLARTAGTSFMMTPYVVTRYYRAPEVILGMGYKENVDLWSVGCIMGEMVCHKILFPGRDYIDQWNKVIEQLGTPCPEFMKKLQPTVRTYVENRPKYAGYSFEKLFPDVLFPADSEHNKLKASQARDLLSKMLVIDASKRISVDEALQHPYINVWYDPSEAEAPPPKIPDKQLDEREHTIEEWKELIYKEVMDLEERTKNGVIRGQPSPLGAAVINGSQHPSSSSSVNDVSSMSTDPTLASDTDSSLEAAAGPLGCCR

Row | SMILES | Kd [1] [µM] | Kd [2] [µM] | selectivity index (JNK3 versus JNK1 and JNK2) [3] | Kd [3] [µM] | Selectivity Index JNK1/JNK3 [3] | Selectivity Index JNK2/JNK3 [3] | IC50 at 24 h [4] [µM] | IC50 at 24 h [5] [µM] | IC50 [6] [µM] | IC50 [7] [µM] | melting point
1 | O=c1c2ccccc2nc2n1-c1ccc([N+](=O)[O-])cc1C2=NO [Compound 4a, 8-Nitroindolo[2,1-b]quinazolin-6,12-dione Oxime] | > 30 | > 30 | > 7 | 0.86 ± 0.042 | >40 | >40 | 8.4 ± 0.9 | 4.1 ± 0.7 | – | – | –
2 | CCOC(=O)CON=C1c2ccccc2-n2c1nc1ccccc1c2=O [Compound 5a, Ethyl 2-(((12-Oxoindolo[2,1-b]quinazolin-6(12H)-ylidene)amino)oxy)acetate] | > 30 | > 30 | – | > 30 | – | – | > 50 | > 50 | > 50 | > 50 | 218 °C
3 | O=c1c2ccc([N+](=O)[O-])cc2nc2n1-c1ccccc1C2=NO [Compound 4m, 3-Nitroindolo[2,1-b]quinazolin-6,12-dione Oxime] | > 30 | > 30 | – | 6.1 ± 0.4 | >5.6 | >5.6 | > 50 | > 50 | 8.3 ± 0.2 | 1.9 ± 0.3 | > 225 °C (dec.)
4 | O=c1c2cc(Br)ccc2nc2n1-c1ccccc1C2=NO [Compound 4j, 2-Bromoindolo[2,1-b]quinazolin-6,12-dione Oxime] | 4.1 ± 0.6 | 7.4 ± 0.6 | – | 1.9 ± 0.4 | 2.2 | 3.9 | 12.5 ± 2.3 | 8.2 ± 1.6 | – | – | > 225 °C (dec.)
5 | O=c1c2cc([N+](=O)[O-])ccc2nc2n1-c1ccccc1C2=NO [Compound 4n, 2-Nitroindolo[2,1-b]quinazolin-6,12-dione Oxime] | > 30 | > 30 | – | 8.7 ± 1 | >3.9 | >3.9 | 39.3 ± 3.1 | > 50 | – | 9.6 ± 1.3 | > 225 °C (dec.)
6 | COc1ccc2c(c1)-n1c(nc3cc(OC)ccc3c1=O)C2=NO [Compound 4r, 3,9-Dimethoxylindolo[2,1-b]quinazolin-6,12-dione Oxime] | 4.6 ± 0.6 | 5.8 ± 1.6 | – | 3.2 ± 1.1 | 1.4 | 1.8 | 8.3 ± 1.3 | 4.3 ± 0.9 | – | – | 292 to 293 °C
7 | O=c1c2cc(Br)ccc2nc2n1-c1ccc([N+](=O)[O-])cc1C2=NO [Compound 4f, 2-Bromo-8-nitroindolo[2,1-b]quinazolin-6,12-dione Oxime] | > 30 | > 30 | – | > 30 | – | – | 3.8 ± 0.9 | 2.7 ± 0.6 | – | – | > 225 °C (dec.)
8 | O=c1c2ccc(Br)cc2nc2n1-c1cc(Br)ccc1C2=NO [Compound 4s, 3,9-Dibromoindolo[2,1-b]quinazolin-6,12-dione Oxime] | > 30 | > 30 | – | > 30 | – | – | 49.1 ± 8.3 | 16.9 ± 3.4 | – | – | > 300 °C (dec.)
9 | CCc1ccc2c(c1)C(=NO)c1nc3ccccc3c(=O)n1-2 [Compound 4c, 8-Ethylindolo[2,1-b]quinazolin-6,12-dione Oxime] | 2.6 ± 0.4 | 1.3 ± 0.01 | – | 0.49 ± 0.09 | 5.3 | 2.7 | > 50 | 13.3 ± 1.3 | 0.7 ± 0.2 | – | > 225 °C (dec.)
10 | O=c1c2ccccc2nc2n1-c1ccccc1C2=NO [TRYP-Ox, tryptanthrin-6-oxime, reference compound] | – | – | – | – | – | – | > 50 | > 50 | 3.8 ± 1.1 | – | –
11 | O=c1c2cc(Br)ccc2nc2n1-c1ccc(Br)cc1C2=NO [Compound 4t, 2,8-Dibromoindolo[2,1-b]quinazolin-6,12-dione Oxime] | > 30 | > 30 | – | > 30 | – | – | 6.6 ± 0.3 | 9.2 ± 2.1 | – | – | 250 to 251 °C
12 | O=C(ON=C1c2ccccc2-n2c1nc1ccccc1c2=O)c1ccc2c(c1)OCO2 [Compound 5e, 6-(((Benzo[d][1,3]dioxol-5-carbonyl)oxy)imino)indolo[2,1-b]quinazolin-12(6H)-one] | 0.47 ± 0.08 | 1.5 ± 0.6 | – | 0.27 ± 0.01 | 1.7 | – | > 50 | 27.3 ± 1.4 | 3.5 ± 1.2 | – | 206 to 208 °C
13 | O=c1c2cc(C(F)(F)F)ccc2nc2n1-c1ccccc1C2=NO [Compound 4i, 2-Trifluoromethylindolo[2,1-b]quinazolin-6,12-dione Oxime] | > 30 | > 30 | – | 11 ± 1.4 | >3 | >3 | 5.6 ± 1.2 | 5.7 ± 1.2 | – | – | > 225 °C (dec.)
14 | O=c1c2ccc(Br)cc2nc2n1-c1ccccc1C2=NO [Compound 4k, 3-Bromoindolo[2,1-b]quinazolin-6,12-dione Oxime] | > 30 | > 30 | – | 5.7 ± 1.8 | >6 | >6 | 24.1 ± 2.7 | > 50 | – | – | > 225 °C (dec.)
